{
  "source": "patent US12559471B2",
  "about": "“1,5-dihydro-2,4-benzodiazepine-3-one derivative and application thereof” (JIANGSU NHWA PHARMACEUTICAL CO., LTD, priority 2020, dated 2026)",
  "key": {"[1]": {"system": "MPTP+MK-801-induced Parkinson's disease mouse model", "test": "MPTP+MK-801-induced Parkinson's disease mouse model (anti-PDP efficacy model)", "assay_type": "in vivo", "conditions": "ip, mice, intraperitoneal, read-out: PDP efficacy (high activity) ED50", "experimental": "1.1 Effect on MPTP+MK-801-induced Parkinson's disease mouse model (anti-PDP efficacy model)\nAnimals were injected with different doses of MPTP(1-methyl-4-phenyl-1,2,3,6-tetrahydropyridine) intraperitoneally every morning for 5 consecutive days. […] Then, after an interval of 0.25 h, the mice were placed into an autonomous activity test box (a black polyethylene box with the specification of 29 cm×29 cm×30 cm) for video recording for 20 min. Video analysis was performed after the video recording to evaluate the activity of the mice."}, "[2]": {"molecular_target": "5-HT2A receptor (Homo sapiens (Human), UniProt P28223)", "sequence (P28223 whole entry)": "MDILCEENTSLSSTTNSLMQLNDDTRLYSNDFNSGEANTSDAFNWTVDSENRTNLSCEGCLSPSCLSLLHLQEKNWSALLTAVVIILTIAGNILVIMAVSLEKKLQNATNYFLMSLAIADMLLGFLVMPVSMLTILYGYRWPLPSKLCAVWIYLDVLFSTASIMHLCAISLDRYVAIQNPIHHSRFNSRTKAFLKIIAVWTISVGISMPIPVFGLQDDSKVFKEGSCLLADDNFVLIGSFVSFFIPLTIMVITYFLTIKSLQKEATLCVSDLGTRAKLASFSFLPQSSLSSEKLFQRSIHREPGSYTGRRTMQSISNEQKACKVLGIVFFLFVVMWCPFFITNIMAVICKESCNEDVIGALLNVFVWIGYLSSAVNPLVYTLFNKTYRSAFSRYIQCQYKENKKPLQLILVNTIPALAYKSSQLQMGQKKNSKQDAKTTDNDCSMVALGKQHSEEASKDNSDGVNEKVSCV", "test": "Competitive 5-HT2A receptor binding assay (3H-Ketanserin, CHO-5-HT2A membrane)", "experimental": "1) Preparation of CHO-5-HT2A Receptor Membrane\nThe precipitate was collected, and the supernatant was discarded. The solution B was added into the precipitate. […] The supernatant was carefully discarded, and the solution B was added into the precipitate again. […] The precipitate obtained was stored at −80° C.\n1) Competitive 5-HT2A Receptor Binding Assay\nStep 2: 100 μL of the membrane preparation was added into each reaction tube.\nAfter the filtration, the filter membrane was dried at 60° C. and added into a scintillation disc attached with a bottom membrane, which was then added with 40 μL of scintillation liquid, sealed with a top membrane, and left to stand."}, "[3]": {"system": "PPI in normal rats", "test": "PPI in normal rats (dosing test, normal saline instead of DOI)", "assay_type": "in vivo", "conditions": "for PPI %, MEAN / PPI %, individual animal: normal saline", "experimental": "The test was performed according to literature and preliminary experiments, and the specific process was as follows: first an adaptation period of 5 min was given (62 dB background sound), and 5 separate startle reflex stimuli were given after the adaptation period (blockl, results not included in the analysis to reduce the initial response of the animals to a plateau level), followed by 4 different types of tests (block2) presented in a pseudo-random manner, namely: 1) startle reflex stimulus alone (pulse-alone, 120 dB, lasting 20 ms); 2) prepulse stimulus alone 13 dB above the background sound (prepulse-alone, 75 dB, lasting 20 ms); 3) prepulse stimulus in combination with startle reflex stimulus, each lasting 20 ms, with an interval of 100 ms; and 4) no stimulus in which only the background sound was given (no stimulus). Each trial was performed 5 times, with an average interval of 20 s (10-30 s) between trials.\nThe response amplitude of the startle reflex stimulus alone or the prepulse stimulus in combination with startle reflex stimulus was expressed as the AVG (instrument-specific unit) value, which indirectly reflects the size of the flinching response of the rat body. Evaluation index: PPI %=(1−response amplitude of prepulse stimulus in combination with startle reflex stimulus/response amplitude of startle reflex stimulus alone)×100. The higher the value is, the greater the degree of the inhibition is. Dosing Test:\nThe DOI at 0.5 mg/kg administered to animals in the above groups was changed to normal saline (NS), and other operations including administration and testing were the same as those in the intervention test."}},
  "note": "Several values for one entry are separate records, joined by “and”; a condition that tells them apart may be missing. Equal entries are not always repeated.",
  "data": [
    {"smiles": "CC(C)COc1ccc(CN2Cc3ccc(F)cc3CN(C3CCN(C)CC3)C2=O)cc1", "note": "[NH-K-A19005, 8-fluoro-2-(1-methylpiperidin-4-yl)-4-[[4-(2-methylpropoxy)phenyl]methyl]-1,5-dihydro-2,4-benzo diazepine-3-one]", "values": [
      {"measurement": "ED50", "setting": "[1]", "value": 1.85, "unit": "mg/kg"},
      {"measurement": "Ki", "setting": "[2]; CHO-5-HT2A membrane, 3H-Ketanserin, read-out: 5-HT2A (Ki value)", "value": 0.429, "unit": "nM"},
      {"measurement": "2C/2A", "setting": "[2]; ratio of 5-HT2C Ki to 5-HT2A Ki", "value": 7.907},
      {"measurement": "effect on PPI in normal rats", "setting": "[3]; 3 mg/kg", "value": "no significant effects were seen"},
      {"measurement": "PPI %, MEAN", "setting": "[3]; 1 mg/kg intragastric", "value": 56.40, "unit": "%"},
      {"measurement": "PPI %, individual animal", "setting": "[3]; 1 mg/kg intragastric", "value": "80.68% and 15.47% and 49.79% and 52.82% and 71.15% and 68.46%"},
      {"measurement": "PPI %, MEAN", "setting": "[3]; 3 mg/kg intragastric", "value": 57.04, "unit": "%"},
      {"measurement": "PPI %, individual animal", "setting": "[3]; 3 mg/kg intragastric", "value": "59.36% and 82.61% and 79.48% and 48.75% and 42.42% and 38.56% and 48.95% and 56.22%"},
      {"measurement": "PPI %, MEAN", "setting": "[3]; 10 mg/kg intragastric", "value": 73.61, "unit": "%"},
      {"measurement": "PPI %, individual animal", "setting": "[3]; 10 mg/kg intragastric", "value": "55.11% and 96.41% and 53.03% and 84.89% and 84.43% and 72.39% and 61.37% and 81.26%"}
    ]}
  ]
}
